# Source: US20240360134A1, “PYRAZOLOPYRIMIDINES AND THEIR USES AS PDGFR INHIBITORS” (priority 2021, published 2024)
# Legend:
# PDGFRβ = PDGFRβ (Rattus norvegicus (Rat), UniProt Q05030); assay: PDGFRβ Cellular Assay (PDGFRb P-Y751 HTRF, PDGF-BB stimulated A10 cells); type: cell-based; conditions: A10 cells, 3 hours compound, 15 ng/mL PDGFbb for 10 minutes; read-out: PDGFR Cellular IC50
# Description: Cell Culture and Preparation: Cells are cultured according to ATCC procedure (5) with the addition of the antibiotic penicillin-streptomycin. If working from frozen, cells should be thawed according to ATCC procedure. Depending on the cell density of frozen vial, cells will need time to recover from thaw. An 80% confluent T75 flask should be enough for one 384 well plate.
# Stock Solutions: Rat PDGFBB. A 100 ug/mL stock is prepared by reconstituting 50 ug in 500 μL of 4 mM HCl and 0.1% BSA. It can be stored for a month at 4° C., or aliquoted out and frozen in the −20/−80° C. to avoid multiple free-thaw cycles.
# 1× Cisbio cell lysis buffer. The cell lysis buffer is diluted 4-fold with molecular grade water. The blocking agent is then diluted 25-fold in the diluted lysis buffer.
# Antibody solutions. Equal amounts d2 and cryptate antibody are diluted 20-fold in detection buffer.
# Rat PDGFBB. A working stock of 100 ng/mL is created from the stock solution in 10% FBS culture media.
# Step 1: Plating Cells: Media from the A10 cell flask is aspirated. The cells are rinsed with PBS and then trypsinized to disperse the cell layer. The cells are then pelleted are resuspended to 1.25e5 cells/mL. […] Plates are covered and placed in the incubator (37° C. 5% CO2) overnight to allow cells to adhere.
# Step 2: Compound Dispense: Approximately 18 hours after plating, dispense 40 nL compound onto cells using Echo. […] The plate is returned to the incubator for 3 hours.
# After 10 minutes the media is removed by flicking the plate.
# Step 4: Cell lysis and antibody addition: 20 uL lysis buffer per well is added to the plate via Tempest. 5 uL antibody solution is added per well via the Tempest. The plate is placed on the shaker at 230 rpm for 1 hour at room temperature.
# Step 5: Detection: The plate is read using the HTRF module on the BMG Pherastar. Data is analyzed using Genedata Screener.
# IC50 values are determined from a 4-parameter fit, using the following equation: Y=Bottom+(Top−Bottom)/(1+10((Log IC50−X)*Hill slope)), where X=log10 of the compound concentration; top can be defined by PC; bottom defined by NC.
# [1] = target: His6-TEV-PDGFRβ (557-1016) (Homo sapiens (Human), UniProt P09619); assay: PDGFRβ HTRF Assay; type: biochemical; conditions: 800 μM ATP, 0.5 μM TK-substrate biotin peptide, 30 min pre-incubation, 3 hours reaction; read-out: PDGFR HTRF IC50
# His6-TEV-PDGFRβ (557-1016), sequence (P09619 whole entry, looked up): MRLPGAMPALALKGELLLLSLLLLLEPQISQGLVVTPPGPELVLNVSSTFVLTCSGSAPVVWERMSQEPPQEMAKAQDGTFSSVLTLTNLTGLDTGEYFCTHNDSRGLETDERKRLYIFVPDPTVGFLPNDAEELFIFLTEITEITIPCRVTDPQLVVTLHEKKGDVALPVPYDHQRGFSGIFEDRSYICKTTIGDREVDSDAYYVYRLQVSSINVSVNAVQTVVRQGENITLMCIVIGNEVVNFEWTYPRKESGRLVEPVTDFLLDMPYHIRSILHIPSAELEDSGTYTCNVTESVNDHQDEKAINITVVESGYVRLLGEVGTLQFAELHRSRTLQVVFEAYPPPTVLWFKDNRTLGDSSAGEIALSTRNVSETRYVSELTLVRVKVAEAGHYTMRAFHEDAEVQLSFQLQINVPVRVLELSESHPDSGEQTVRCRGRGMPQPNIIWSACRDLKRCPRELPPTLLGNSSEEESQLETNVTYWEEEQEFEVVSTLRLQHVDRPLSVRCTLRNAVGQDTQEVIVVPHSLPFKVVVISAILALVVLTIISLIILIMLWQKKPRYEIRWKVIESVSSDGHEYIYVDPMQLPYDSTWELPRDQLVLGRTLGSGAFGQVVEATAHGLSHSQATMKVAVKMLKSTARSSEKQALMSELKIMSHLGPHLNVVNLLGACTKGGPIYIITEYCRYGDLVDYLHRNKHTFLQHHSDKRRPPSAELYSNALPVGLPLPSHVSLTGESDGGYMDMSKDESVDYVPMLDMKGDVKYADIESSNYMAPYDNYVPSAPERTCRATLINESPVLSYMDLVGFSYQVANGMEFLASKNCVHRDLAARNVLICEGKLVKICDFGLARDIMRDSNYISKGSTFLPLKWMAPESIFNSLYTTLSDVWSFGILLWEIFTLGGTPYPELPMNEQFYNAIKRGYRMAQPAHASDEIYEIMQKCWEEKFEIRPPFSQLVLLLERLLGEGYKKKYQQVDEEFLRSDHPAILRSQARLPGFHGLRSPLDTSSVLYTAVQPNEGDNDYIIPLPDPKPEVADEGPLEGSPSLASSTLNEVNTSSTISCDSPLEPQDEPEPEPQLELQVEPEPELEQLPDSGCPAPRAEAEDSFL
# Description: Instrumentation: a. Compound liquid handling: LabCyte Echo; b. Reagent liquid handling: Thermo Scientific Multidrop Combi; c. BMG PHERAStar multilabel plate reader.
# Protein Reagent: His6-TEV-PDGFRβ Protein Prep prepared at Accelagen.
# Assay buffer stock solution, contains 50 mM Hepes, 10 mM MgCl2, 1 mM EGTA, and 0.01% Brij-35, 0.01% ovalbumin, 2 mM DTT at pH 7.5, in molecular biology grade water. Store at room temperature.
# Assay buffer. Dilute 5× Kinase buffer 5-fold with molecular biology grade water and add DTT to 2 mM and ovalbumin to 0.1 mg/mL (or 0.01%).
# 2× protein solution. Make a working solution of […] PDGFRβ in assay buffer. Keep on ice until use to maintain enzyme stability.
# 2× substrate solution. Make a working solution of 1.6 mM ATP and 1 μM TK-substrate biotin peptide in assay buffer. 3× quench/detection solution.
# Step 2. PDGFRβ E+I pre-incubation: Add 2 μL 2× protein solution to columns 1-24 using the Multidrop Combi. Centrifuge at 1000 rpm for 1 min. Incubate 30 min at RT
# Step 2. Enzymatic reaction: Add 2 μL substrate solution to columns 1-24 to initiate the reaction using the Multidrop Combi; cover/seal the assay plate to reduce evaporation. Centrifuge at 1000 rpm for 1 min. Incubate at room temperature for 3 hours.
# Final concentrations of components in PDGFRp cascade assay:
# 0.5 μM TK-substrate biotin peptide
# Step 3. Quench/Detection: Add 2 μl 3× quench/detection solution to columns 1-24 using the Multidrop Combi; cover/seal the plate. Centrifuge 1 min 1000 rpm. Incubate at RT for 60 min.
# HTRF ratio values calculated by the instrument (Ratio is acceptor counts/donor counts*10,000) is exported from the plate reader and used in data analysis. The exported data will be used to calculate 1) compound activity and 2) assay statistics. […] Assay statistics can include Robust Z′ and Signal to Background.
# % Inhibition Calculation: Percent inhibition will be calculated for sample wells based on the equation: […]
# IC50 Calculation: For IC50 determination, full 11-point dose response data will be processed using the following equation: […]
# [2] = target: Tb-labeled inactive PDGFRβ (Homo sapiens (Human), UniProt P09619); assay: biochemical; type: binding; conditions: read-out: PDGFR Lantha IC50
# Tb-labeled inactive PDGFRβ, sequence (P09619 whole entry, looked up): as above
# VEGFR2, unphosphorylated = VEGFR2, unphosphorylated (Homo sapiens (Human), UniProt P35968); assay: VEGFR ADP GLO assay; type: biochemical; conditions: 5 nM VEGFR2, 1.2 mM ATP, 1 mg/mL Srctide, 180 min
# VEGFR2, unphosphorylated, sequence (P35968 whole entry, looked up): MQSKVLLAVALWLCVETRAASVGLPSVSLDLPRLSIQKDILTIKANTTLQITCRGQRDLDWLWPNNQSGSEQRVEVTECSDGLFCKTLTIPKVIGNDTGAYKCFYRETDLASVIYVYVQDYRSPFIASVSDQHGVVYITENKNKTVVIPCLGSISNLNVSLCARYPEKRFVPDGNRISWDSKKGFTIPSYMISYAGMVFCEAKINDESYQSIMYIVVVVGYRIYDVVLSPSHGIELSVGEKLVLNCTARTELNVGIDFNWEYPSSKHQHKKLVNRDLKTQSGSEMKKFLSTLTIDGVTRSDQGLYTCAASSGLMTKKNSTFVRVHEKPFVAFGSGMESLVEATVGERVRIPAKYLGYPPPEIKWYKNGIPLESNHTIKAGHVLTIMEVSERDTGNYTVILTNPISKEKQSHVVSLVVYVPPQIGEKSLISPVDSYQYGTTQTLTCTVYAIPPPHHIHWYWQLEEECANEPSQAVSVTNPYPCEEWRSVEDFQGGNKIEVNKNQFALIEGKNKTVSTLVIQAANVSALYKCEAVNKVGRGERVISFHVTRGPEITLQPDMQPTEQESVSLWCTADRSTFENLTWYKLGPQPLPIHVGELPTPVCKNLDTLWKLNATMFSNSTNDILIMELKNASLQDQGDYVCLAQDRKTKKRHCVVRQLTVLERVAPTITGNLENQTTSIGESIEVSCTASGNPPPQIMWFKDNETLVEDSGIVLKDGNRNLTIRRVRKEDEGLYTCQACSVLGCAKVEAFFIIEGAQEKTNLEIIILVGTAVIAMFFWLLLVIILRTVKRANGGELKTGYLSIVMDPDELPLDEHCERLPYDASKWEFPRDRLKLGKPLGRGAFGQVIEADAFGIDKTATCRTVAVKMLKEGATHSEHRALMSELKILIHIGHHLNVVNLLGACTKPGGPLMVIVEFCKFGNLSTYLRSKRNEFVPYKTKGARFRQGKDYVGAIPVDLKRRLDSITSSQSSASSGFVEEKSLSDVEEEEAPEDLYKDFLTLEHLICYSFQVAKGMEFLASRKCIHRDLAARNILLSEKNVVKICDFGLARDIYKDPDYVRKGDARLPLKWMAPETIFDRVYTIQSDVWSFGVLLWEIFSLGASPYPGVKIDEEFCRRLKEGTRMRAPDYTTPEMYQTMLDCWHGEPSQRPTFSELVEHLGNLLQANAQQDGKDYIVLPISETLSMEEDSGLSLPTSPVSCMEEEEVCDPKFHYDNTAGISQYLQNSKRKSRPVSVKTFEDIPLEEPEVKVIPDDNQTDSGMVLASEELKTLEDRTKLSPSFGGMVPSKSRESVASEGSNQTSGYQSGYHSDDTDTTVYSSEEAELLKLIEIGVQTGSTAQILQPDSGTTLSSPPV
# Description: Assay buffer stock contains 50 mM HEPES pH7.5, 10 mM MgCl2, 0.01% Brij-35, and 1 mM EGTA.
# Unphosphorylated VEGFR2. 52.6 μM in 50 mM Tris-HCl, pH 8.0, 50 mM NaCl, 5% Glycerol, 0.5 mM TCEP. Store at −80° C. in aliquots.
# 10 mg/mL srctide solution, prepared in Assay buffer (Assay buffer stock with 2 mM DTT, 0.1% Pluronic F-127, and 0.1 mg/mL ovalbumin). Sonicate 10 mg/ml Srctide solution for 10 minutes and then vacuum filter.
# Assay buffer. Add DTT to 2 mM, Pluronic F-127 to 0.1% and ovalbumin to 0.1 mg/mL to Assay buffer stock.
# 2× kinase solution. Make a working solution of 10 nM unphosphorylated VEGFR2 in Assay buffer. Vacuum filter 2× kinase solution prior to running assay. Keep on ice until use.
# 2× substrate/ATP solution. Make a working solution of 2 mg/mL srctide and 2.4 mM ATP in Assay buffer. Keep on ice until use.
# Step 1. Dispensing inhibitors/controls: Using Echo, dispense 10 nL/well compound serial dilutions in DMSO to columns 1-22 (in 384-well plates) or columns 1-44 (in 1536-well plates). Dilution series=11 pt, 3-fold dilutions. The top compound concentration in the source plate is 4 mM. The top compound concentration in the assay plate is 10 uM. Using Echo, dispense 10 nl/well DMSO to column 23 (in 384-well plates) or columns 45-47 (in 1536-well plates). These wells will serve as negative control wells Using Echo, dispense 10 nl/well 400 uM TAK-593 in DMSO to column 24 (in 384-well plates) or column 48 (in 1536-well plates). The final concentration of TAK-593 in the assay should be 1 uM. These wells will serve as positive control wells.
# Step 2. Pre-incubation of inhibitors with kinase: Add 2 μL/well 2× kinase solution. Centrifuge at 1000 rpm for 1 min. Incubate at room temperature for 30 min.
# Step 3. Kinase cascade reaction: Add 2 μL/well 2× substrate/ATP solution to initiate kinase reactions. Centrifuge at 1000 rpm for 1 min. Incubate at room temperature for 180 min.
# Final concentrations of components in the assay:
# Step 4. Quench: Add 2 uL/well ADP Glo Reagent+0.05% CHAPS. Centrifuge at 1000 rpm for 1 min; Incubate at room temperature for one hour.
# Step 5. Detection: Add 2 uL/well Kinase Detection Reagent+0.05% CHAPS. Centrifuge at 1000 rpm for 1 min; Incubate at room temperature for 1 hour; Read Luminescence on a plate reader.
# % Inhibition: % Inhibition=(NC−sample)/(NC−PC)*100 where NC is the mean of negative control (reactions without inhibitor), and PC is the mean of positive control (1 μM TAK-593).
# IC50 values are determined from a 4-parameter fit, using the following equation: Y=Bottom+(Top−Bottom)/(1+10^(Log IC50-X)*Hill Slope), where X=log10 of the compound concentration; top can be defined by PC; bottom defined by NC.
# PDGFRβ, sequence (Q05030 whole entry, looked up): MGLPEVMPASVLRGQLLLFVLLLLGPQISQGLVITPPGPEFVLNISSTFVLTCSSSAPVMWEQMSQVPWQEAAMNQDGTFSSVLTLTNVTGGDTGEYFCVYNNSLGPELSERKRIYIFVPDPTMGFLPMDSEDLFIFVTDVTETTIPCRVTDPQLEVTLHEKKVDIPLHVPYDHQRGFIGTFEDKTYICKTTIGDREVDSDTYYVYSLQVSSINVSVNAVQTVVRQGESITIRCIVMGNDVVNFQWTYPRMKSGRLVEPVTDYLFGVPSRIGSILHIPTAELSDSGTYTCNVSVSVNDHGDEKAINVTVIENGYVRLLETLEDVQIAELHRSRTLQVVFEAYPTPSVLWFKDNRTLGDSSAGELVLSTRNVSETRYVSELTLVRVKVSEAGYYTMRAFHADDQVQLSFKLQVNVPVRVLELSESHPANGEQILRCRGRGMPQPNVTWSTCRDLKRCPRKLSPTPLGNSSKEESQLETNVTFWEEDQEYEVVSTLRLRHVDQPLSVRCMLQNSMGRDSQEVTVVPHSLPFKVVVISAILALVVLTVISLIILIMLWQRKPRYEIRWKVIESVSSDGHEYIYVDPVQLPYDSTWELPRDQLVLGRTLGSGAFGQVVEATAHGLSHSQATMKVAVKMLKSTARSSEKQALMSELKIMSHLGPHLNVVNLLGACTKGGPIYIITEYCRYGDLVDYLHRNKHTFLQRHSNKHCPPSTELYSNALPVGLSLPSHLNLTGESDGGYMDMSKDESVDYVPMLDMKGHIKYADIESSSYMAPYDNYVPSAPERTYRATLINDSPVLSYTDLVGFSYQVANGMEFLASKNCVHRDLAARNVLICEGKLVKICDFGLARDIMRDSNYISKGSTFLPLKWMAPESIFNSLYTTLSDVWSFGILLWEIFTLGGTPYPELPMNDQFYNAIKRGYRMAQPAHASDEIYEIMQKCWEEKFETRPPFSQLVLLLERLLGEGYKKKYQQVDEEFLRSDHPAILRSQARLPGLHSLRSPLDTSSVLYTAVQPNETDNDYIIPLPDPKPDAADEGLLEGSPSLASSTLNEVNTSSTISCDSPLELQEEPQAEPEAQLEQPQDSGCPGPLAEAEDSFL
SMILES,IC50 (PDGFRβ),IC50 [1],IC50 [2],"IC50 (VEGFR2, unphosphorylated)"
"Cc1ncc(C(=O)NCCN2CCCC[C@H]2C)cc1Nc1nn(C)c2nc(Nc3cncnc3)ncc12 [Example 11, (R)-6-methyl-5-((1-methyl-6-(pyrimidin-5-ylamino)-1H-pyrazolo[3,4-d]pyrimidin-3-yl)amino)-N-(2-(2-methylpiperidin-1-yl)ethyl)nicotinamide]",68.8 nM,0.68 nM,5.8 nM,~6630 nM
"Cc1ncc(C(=O)NCCN2CCCC2(C)C)cc1Nc1nn(C)c2nc(Nc3ccc(N)nc3)ncc12 [Example 32, 5-((6-((6-aminopyridin-3-yl)amino)-1-methyl-1H-pyrazolo[3,4-d]pyrimidin-3-yl)amino)-N-(2-(2,2-dimethylpyrrolidin-1-yl)ethyl)-6-methylnicotinamide]",110 nM,0.54 nM,5.7 nM,> 7500 nM
"Cc1ncc(NC(=O)C2(C(=O)N3CCNCC3)CC2)cc1Nc1nn(C)c2nc(Nc3cnn(C)c3)ncc12 [Example 117, N-(6-methyl-5-((1-methyl-6-((1-methyl-1H-pyrazol-4-yl)amino)-1H-pyrazolo[3,4-d]pyrimidin-3-yl)amino)pyridin-3-yl)-1-(piperazine-1-carbonyl) cyclopropanecarboxamide]",> 2000 nM,4.28 nM,147 nM,> 7500 nM
"Cc1ncc(C(=O)NCCN2CCC3(CC3)C2)cc1Nc1nn(C)c2nc(Nc3cnn(C)c3)ncc12 [Example 90, N-(2-(5-azaspiro[2.4]heptan-5-yl)ethyl)-6-methyl-5-((1-methyl-6-((1-methyl-1H-pyrazol-4-yl)amino)-1H-pyrazolo[3,4-d]pyrimidin-3-yl)amino)nicotinamide]",27.2 nM,0.25 nM,1.8 nM,> 7500 nM
"Cc1ncc(C(=O)NCCN2CCC3(CC3)C2)cc1Nc1nn(C)c2nc(Nc3cncnc3)ncc12 [Example 58, N-(2-(5-azaspiro[2.4]heptan-5-yl)ethyl)-6-methyl-5-((1-methyl-6-(pyrimidin-5-ylamino)-1H-pyrazolo[3,4-d]pyrimidin-3-yl)amino)nicotinamide]",101 nM,0.36 nM,4.8 nM,> 7500 nM
"Cc1ncc(C(=O)NCCN2CCC23CCC3)cc1Nc1nn(C)c2nc(Nc3cnn(C)c3)ncc12 [Example 149, N-(2-(1-azaspiro[3.3]heptan-1-yl)ethyl)-6-methyl-5-((1-methyl-6-((1-methyl-1H-pyrazol-4-yl)amino)-1H-pyrazolo [3,4-d]pyrimidin-3-yl)amino)nicotinamide]",25.4 nM,0.36 nM,2.2 nM,6560 nM
"Cc1ncc(C(=O)NCCN2CCCC2(C)C)cc1Nc1nn(C)c2nc(Nc3ccc(N4CCOCC4)nc3)ncc12 [Example 102, N-(2-(2,2-dimethylpyrrolidin-1-yl)ethyl)-6-methyl-5-((1-methyl-6-((6-morpholinopyridin-3-yl)amino)-1H-pyrazolo[3,4-d]pyrimidin-3-yl)amino)nicotinamide]",7.6 nM,0.37 nM,3.8 nM,> 7500 nM
"Cc1ncc(C(=O)NCCN(C)C2CCOCC2)cc1Nc1nn(C)c2nc(Nc3cncnc3)ncc12 [Example 10, 6-methyl-N-(2-(methyl(tetrahydro-2H-pyran-4-yl)amino)ethyl)-5-((1-methyl-6-(pyrimidin-5-ylamino)-1H-pyrazolo[3,4-d]pyrimidin-3-yl)amino)nicotinamide]",204 nM,0.63 nM,9.9 nM,> 7500 nM
"CO[C@H]1CCN(CC(=O)Nc2cnc(C)c(Nc3nn(C)c4nc(Nc5cnn(C)c5)ncc34)c2)C1 [Example 136, (S)-2-(3-methoxypyrrolidin-1-yl)-N-(6-methyl-5-((1-methyl-6-((1-methyl-1H-pyrazol-4-yl)amino)-1H-pyrazolo[3,4-d]pyrimidin-3-yl)amino)pyridin-3-yl)acetamide]",12.2 nM,0.52 nM,3.7 nM,> 7500 nM
"Cc1ncc(C(=O)NCCN(C)C2CCCC2)cc1Nc1nn(C)c2nc(Nc3cncnc3)ncc12 [Example 9, N-(2-(cyclopentyl(methyl)amino)ethyl)-6-methyl-5-((1-methyl-6-(pyrimidin-5-ylamino)-1H-pyrazolo[3,4-d]pyrimidin-3-yl)amino)nicotinamide]",36.5 nM,0.59 nM,7 nM,> 7500 nM
